Experimental data published in US6737383B1, “Herbicidal oxadiazolidines” (priority 1999, dated 2004).

Legend:
morningglory = test: Test B pre/postemergence morningglory; format: in vivo, Ipomoea hederacea
Method in brief: (§1)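 Response is a visual 0-to-10 score relative to untreated plants, where 0 means no effect and 10 means complete control, taken twelve to sixteen days after application. Treatments went onto soil at planting and onto foliage of 1- to 4-leaf plants, using a surfactant-containing non-phytotoxic solvent.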

soybean = test: Test B pre/postemergence soybean; format: in vivo, Glycine max
Method in brief: as §1

wild oat = test: Test B pre/postemergence wild oat; format: in vivo, Avena fatua
Method in brief: as §1

pigweed = test: Test B pre/postemergence pigweed; format: in vivo, Amaranthus retroflexus
Method in brief: as §1

crabgrass = test: Test B pre/postemergence crabgrass; format: in vivo, Digitaria sanguinalis
Method in brief: as §1

rape = test: Test B pre/postemergence rape; format: in vivo, Brassica napus
Method in brief: as §1

wheat = test: Test B pre/postemergence wheat; format: in vivo, Triticum aestivum
Method in brief: as §1

cocklebur = test: Test B pre/postemergence cocklebur; format: in vivo, Xanthium strumarium
Method in brief: as §1

bedstraw = test: Test B pre/postemergence bedstraw; format: in vivo, Galium aparine
Method in brief: as §1

velvetleaf = test: Test B pre/postemergence velvetleaf; format: in vivo, Abutilon theophrasti
Method in brief: as §1

corn = test: Test B pre/postemergence corn; format: in vivo, Zea mays
Method in brief: as §1

sugar beet = test: Test B pre/postemergence sugar beet; format: in vivo, Beta vulgaris
Method in brief: as §1

blackgrass = test: Test B pre/postemergence blackgrass; format: in vivo, Alopecurus myosuroides
Method in brief: as §1

purple nutsedge = test: Test B pre/postemergence purple nutsedge; format: in vivo, Cyperus rotundus
Method in brief: as §1

surinam grass = test: Test B pre/postemergence surinam grass; format: in vivo, Brachiaria decumbens
Method in brief: as §1

giant foxtail = test: Test B pre/postemergence giant foxtail; format: in vivo, Setaria faberii
Method in brief: as §1

[1] = Postemergence, Rate 62 g/ha, scale 0 to 10, 0 is no effect, 10 is complete control
[2] = Postemergence, Rate 125 g/ha, scale of 0 to 10 where 0 is no effect and 10 is complete control
[3] = Postemergence, Rate 500 g/ha, scale 0 (no effect) to 10 (complete control)
[4] = Rate 62 g/ha, Preemergence, scale 0 to 10
[5] = Rate 125 g/ha, Preemergence, scale 0 to 10 (0 no effect, 10 complete control)
[6] = Rate 250 g/ha, Postemergence, scale 0 to 10, 0 is no effect, 10 is complete control
[7] = Rate 500 g/ha, Preemergence, scale 0 to 10 (0 no effect, 10 complete control)
[8] = Preemergence, Rate 250 g/ha, scale 0 (no effect) to 10 (complete control)

SMILES: CC(C)N(C(=O)n1oc(=O)n(CCCCCl)c1=O)c1ccc(Cl)cc1 [Compound 791]
- Plant response rating, Morningglory (morningglory; [1]): 3
- Morningglory plant response rating (morningglory; [2]): 3
- Morningglory plant response rating (morningglory; [3]): 9
- Morningglory plant response rating (morningglory; [4]): 0
- Morningglory plant response rating (morningglory; [5]): 0
- Morningglory plant response rating (morningglory; [6]): 9
- Morningglory plant response rating (morningglory; [7]): 0
- Plant response rating, Soybean (soybean; [1]): 4
- Soybean plant response rating (soybean; [3]): 5
- Soybean plant response rating (soybean; [4]): 4
- Soybean plant response rating (soybean; [5]): 4
- Soybean plant response rating (soybean; [6]): 5
- Soybean plant response rating (soybean; [7]): 5
- Plant response rating, Wild oats (wild oat; [1]): 0
- Wild oats plant response rating (wild oat; [3]): 0
- Wild oats plant response rating (wild oat; [4]): 0
- Wild oats plant response rating (wild oat; [5]): 0
- Wild oats plant response rating (wild oat; [6]): 0
- Plant response rating, Redroot pigweed (pigweed; [1]): 2
- Redroot pigweed plant response rating (pigweed; [2]): 6
- Redroot pigweed plant response rating (pigweed; [3]): 8
- Redroot pigweed plant response rating (pigweed; [4]): 0
- Redroot pigweed plant response rating (pigweed; [5]): 0
- Redroot pigweed plant response rating (pigweed; [6]): 6
- Plant response rating, Crabgrass (crabgrass; [1]): 1
- Crabgrass plant response rating (crabgrass; [2]): 4
- Crabgrass plant response rating (crabgrass; [3]): 9
- Crabgrass plant response rating (crabgrass; [8]): 10
- Crabgrass plant response rating (crabgrass; [4]): 6
- Crabgrass plant response rating (crabgrass; [5]): 6
- Crabgrass plant response rating (crabgrass; [6]): 9
- Crabgrass plant response rating (crabgrass; [7]): 10
- Plant response rating, Rape (rape; [1]): 3
- Rape plant response rating (rape; [2]): 3
- Rape plant response rating (rape; [3]): 6
- Rape plant response rating (rape; [4]): 0
- Rape plant response rating (rape; [5]): 0
- Rape plant response rating (rape; [6]): 5
- Plant response rating, Wheat (wheat; [1]): 0
- Wheat plant response rating (wheat; [3]): 0
- Wheat plant response rating (wheat; [4]): 0
- Wheat plant response rating (wheat; [5]): 0
- Wheat plant response rating (wheat; [6]): 0
- Plant response rating, Cocklebur (cocklebur; [1]): 0
- Cocklebur plant response rating (cocklebur; [2]): 0
- Cocklebur plant response rating (cocklebur; [3]): 5
- Cocklebur plant response rating (cocklebur; [8]): 0
- Cocklebur plant response rating (cocklebur; [4]): 0
- Cocklebur plant response rating (cocklebur; [5]): 0
- Cocklebur plant response rating (cocklebur; [6]): 0
- Cocklebur plant response rating (cocklebur; [7]): 0
- Plant response rating, Bedstraw (bedstraw; [1]): 0
- Bedstraw plant response rating (bedstraw; [3]): 3
- Bedstraw plant response rating (bedstraw; [5]): 0
- Bedstraw plant response rating (bedstraw; [6]): 3
- Plant response rating, Velvetleaf (velvetleaf; [1]): 2
- Velvetleaf plant response rating (velvetleaf; [3]): 6
- Velvetleaf plant response rating (velvetleaf; [4]): 0
- Velvetleaf plant response rating (velvetleaf; [5]): 0
- Velvetleaf plant response rating (velvetleaf; [6]): 6
- Velvetleaf plant response rating (velvetleaf; [7]): 0
- Plant response rating, Corn (corn; [1]): 0
- Corn plant response rating (corn; [2]): 0
- Corn plant response rating (corn; [3]): 1
- Corn plant response rating (corn; [8]): 0
- Corn plant response rating (corn; [4]): 0
- Corn plant response rating (corn; [5]): 0
- Corn plant response rating (corn; [6]): 1
- Corn plant response rating (corn; [7]): 0
- Plant response rating, Sugarbeets (sugar beet; [1]): 0
- Sugarbeets plant response rating (sugar beet; [3]): 5
- Sugarbeets plant response rating (sugar beet; [4]): 0
- Sugarbeets plant response rating (sugar beet; [5]): 0
- Sugarbeets plant response rating (sugar beet; [6]): 2
- Plant response rating, Blackgrass (blackgrass; [1]): 0
- Blackgrass plant response rating (blackgrass; [2]): 2
- Blackgrass plant response rating (blackgrass; [3]): 6
- Blackgrass plant response rating (blackgrass; [8]): 7
- Blackgrass plant response rating (blackgrass; [4]): 0
- Blackgrass plant response rating (blackgrass; [5]): 0
- Blackgrass plant response rating (blackgrass; [6]): 5
- Plant response rating, Nutsedge (purple nutsedge; [1]): 0
- Nutsedge plant response rating (purple nutsedge; [2]): 0
- Nutsedge plant response rating (purple nutsedge; [3]): 0
- Nutsedge plant response rating (purple nutsedge; [4]): 0
- Nutsedge plant response rating (purple nutsedge; [5]): 0
- Nutsedge plant response rating (purple nutsedge; [6]): 0
- Nutsedge plant response rating (purple nutsedge; [7]): 0
- Plant response rating, B. signalgrass (surinam grass; [1]): 0
- B. signalgrass plant response rating (surinam grass; [2]): 0
- B. signalgrass plant response rating (surinam grass; [8]): 0
- B. signalgrass plant response rating (surinam grass; Rate 62 g/ha, Preemergence, scale 0 (no effect) to 10 (complete control)): 0
- B. signalgrass plant response rating (surinam grass; [5]): 0
- B. signalgrass plant response rating (surinam grass; [6]): 0
- B. signalgrass plant response rating (surinam grass; Rate 500 g/ha, Postemergence, scale 0 to 10, 0 is no effect, 10 is complete control): 0
- Plant response rating, Giant foxtail (giant foxtail; [1]): 0
- Giant foxtail plant response rating (giant foxtail; [2]): 2
- Giant foxtail plant response rating (giant foxtail; [3]): 9
- Giant foxtail plant response rating (giant foxtail; [8]): 10
- Giant foxtail plant response rating (giant foxtail; [4]): 10
- Giant foxtail plant response rating (giant foxtail; [5]): 10
- Giant foxtail plant response rating (giant foxtail; [6]): 8
- Giant foxtail plant response rating (giant foxtail; [7]): 10
